The source of these data is ChEMBL document CHEMBL1201862, “PubChem BioAssay data set” (2004).

Structures are written as SMILES.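 Where inhibition never reached the appropriate level, the endpoint shown equals the highest concentration tested. Otherwise, values were interpolated linearly from a five-concentration, 48-hour dose response in 96-well plates. Abbreviation: GI50, concentration required for 50% inhibition of growth.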 Calls of active or inactive are those of the source. Cut-off read from the data, not from the text of the source: active = GI50 up to about 1.1 µM and inactive = higher.

Assay in all cases: NCI tumour cell line growth inhibition, 48 h
Assay [1] relates to ACHN.
Assay [2] deals with DU-145.
In assay [3] the test system is EKVX.
Assay [4] deals with HOP-62.
The test system of assay [5] is KM12.
Assay [6] deals with Malme-3M.
The subject of assay [7] is NCI-H23.
For assay [8], the system named is OVCAR-3.
The test system of assay [9] is OVCAR-4.
For assay [10], the system named is RXF 393.
Assay [11] deals with SF-539.
The subject of assay [12] is SK-MEL-5.
For assay [13], the system named is SK-OV-3.
Assay [14] deals with SN12C.
Assay [15] concerns SNB-19.
The subject of assay [16] is SR.
Assay [17] relates to T47D.
Assay [18] concerns U-251.
For assay [19], the system named is UACC-62.

On to `Clc1ccc(Cc2nc3ccccc3nc2-c2cccc(Br)c2)cc1`, for which the GI50 is 1.91 µM (inactive) in assay [1]; 10.7 µM (inactive) in assay [2]; 15.1 µM (inactive) in assay [3]; 17.9 µM (inactive) in assay [4]; 8.59 µM (inactive) in [5]; 4.45 µM (inactive) in assay [6]. For the same compound, the GI50 was 13.5 µM (inactive) in assay [7]; 2.33 µM (inactive) in [8]; 2.18 µM (inactive) in [9]; 2.47 µM (inactive) in assay [10]; 2.26 µM (inactive) in [11]; 13.9 µM (inactive) in assay [12]. Also, the GI50 in [13] is 16.8 µM (inactive); in [14], 3.1 µM (inactive); in [15] it was 1.52 µM (inactive); in assay [16] it was 1.75 µM (inactive); in assay [17] it was 1.87 µM (inactive); in assay [18], 7.41 µM (inactive). The GI50 in [19] was 1.91 µM (inactive).

Turning to `CCCOC(=O)c1cc(O)c(O)c(O)c1` [PROPYL GALLATE], the GI50 was 46.2 µM (inactive) in assay [1]; 30.3 µM (inactive) in assay [2]; 27.7 µM (inactive) in assay [3]; 33.8 µM (inactive) in assay [4]; 20.5 µM (inactive) in [5]; 74.6 µM (inactive) in assay [6]. The GI50 in assay [7] was > 100 µM (inactive); in assay [8], 25.7 µM (inactive); in assay [9], > 100 µM (inactive); in assay [10] it was 19.3 µM (inactive); in assay [11], 10.9 µM (inactive); in assay [12] it was 59.3 µM (inactive). Moreover, the GI50 in assay [13] was > 100 µM (inactive); in [14], 22.4 µM (inactive); in assay [15] it was 57.4 µM (inactive); in [16], > 100 µM (inactive); in assay [17], 62.1 µM (inactive); in [18], 56.4 µM (inactive). Besides, the GI50 in assay [19] was 24.7 µM (inactive).

As for `NC(=O)C1CCN(Cc2c(Cl)c(Cl)c(CN3CCC(C(N)=O)CC3)c(Cl)c2Cl)CC1`, the GI50 was > 100 µM (inactive) in assay [1]; > 100 µM (inactive) in assay [2]; 38.6 µM (inactive) in assay [3]; 11.6 µM (inactive) in assay [4]; > 100 µM (inactive) in assay [5]; 90.8 µM (inactive) in assay [6]. The GI50 in assay [7] was > 100 µM (inactive); in assay [8] it was > 100 µM (inactive); in assay [9] it was > 100 µM (inactive); in assay [10] it was 52.6 µM (inactive); in assay [11], 28.4 µM (inactive); in [12], > 100 µM (inactive). In addition, the GI50 is 15.1 µM (inactive) in [13]; > 100 µM (inactive) in assay [14]; 43.9 µM (inactive) in assay [15]; > 100 µM (inactive) in assay [16]; > 100 µM (inactive) in [17]; 34.8 µM (inactive) in [18]. In assay [19], the GI50 was > 100 µM (inactive).

As for `Nc1ccc2nc3c(nc2c1)C(=O)c1ccccc1-3`, the GI50 in [1], in assay [2], in assay [3], in assay [4], in [5] and in [6] was > 100 µM (inactive) throughout. Further, the GI50 in assay [7], in assay [8], in assay [9], in assay [10], in assay [11] and in assay [12] was > 100 µM (inactive) in each case. The GI50 was > 100 µM (inactive) in assay [13]; > 100 µM (inactive) in assay [14]; > 100 µM (inactive) in assay [15]; > 10 µM (inactive) in [16]; > 100 µM (inactive) in [17]; > 100 µM (inactive) in [18]. For the same compound, the GI50 in assay [19] was > 100 µM (inactive).

As to `CNC(=O)N(CCC#N)CCCN(C(=O)N(C)C)c1ccccc1`, the GI50 in assay [1], in assay [2], in assay [3], in assay [4], in assay [5] and in [6] was > 100 µM (inactive) throughout. For the same compound, the GI50 in assay [7], in assay [8], in [9], in assay [10], in assay [11] and in [12] was > 100 µM (inactive) each time. For the same compound, the GI50 was > 100 µM (inactive) in assay [13]; > 100 µM (inactive) in assay [14]; > 100 µM (inactive) in assay [15]; 14.5 µM (inactive) in assay [16]; > 100 µM (inactive) in [17]; > 100 µM (inactive) in assay [18]. Also, in [19], the GI50 was > 100 µM (inactive).

On to `O=C1Nc2nccnc2C(=O)N2CCC[C@@H]12`, for which the GI50 in assay [1], in assay [2], in [3], in [4], in [5] and in [6] was > 100 µM (inactive) throughout. Further, the GI50 in assay [7], in [8], in assay [9], in [10], in assay [11] and in assay [12] was > 100 µM (inactive) in each case. For the same compound, the GI50 in [13], in assay [14], in assay [15], in [16], in [17] and in assay [18] was > 100 µM (inactive) throughout. In addition, the GI50 in assay [19] was > 100 µM (inactive).

Regarding `CC(C)C[C@H](NC(=O)[C@H](Cc1cccc2ccccc12)NC(=O)N1CCOCC1)B(O)O`, the GI50 in assay [1] is < 0.01 µM (active); in assay [2], < 0.01 µM (active); in assay [3], 0.0334 µM (active); in [4], < 0.01 µM (active); in [5], < 0.01 µM (active); in [6], < 0.01 µM (active). The GI50 in [7] was < 0.01 µM (active); in assay [8] it was < 0.01 µM (active); in [9] it was < 0.01 µM (active); in assay [10], 0.000555 µM (active); in [11], < 0.01 µM (active); in [12], 0.001 µM (active). Further, the GI50 was 0.008 µM (active) in [13]; < 0.01 µM (active) in assay [14]; < 0.01 µM (active) in assay [15]; < 0.0126 µM (active) in assay [16]; < 0.01 µM (active) in assay [17]; < 0.01 µM (active) in assay [18]. Also, the GI50 in [19] was < 0.01 µM (active).

Turning to `CCCCCCN(CCCCCC)C(=S)N/N=C(\C)c1ccccn1`, the GI50 in assay [1] is 0.703 µM (active); in [2] it was 1.28 µM (inactive); in [3] it was 0.531 µM (active); in assay [4], 1.21 µM (inactive); in [5] it was 1.05 µM (active); in [6], 1.34 µM (inactive). The GI50 in assay [7] was 1.24 µM (inactive); in assay [8] it was 0.506 µM (active); in assay [9], 0.457 µM (active); in assay [10], 0.973 µM (active); in assay [11], 1.09 µM (active); in assay [12] it was 1.03 µM (active). For the same compound, the GI50 in assay [13] was 1.4 µM (inactive); in assay [14], 0.957 µM (active); in assay [15], 1.31 µM (inactive); in [16] it was 0.436 µM (active); in assay [17] it was 0.269 µM (active); in assay [18], 0.393 µM (active). Also, in [19], the GI50 is 1 µM (active).

On to `O=C(O)c1c(-c2nccc3ccccc23)[nH]c(-c2ccccc2)c1S(=O)(=O)O`, for which the GI50 is > 100 µM (inactive) in assay [1]; > 100 µM (inactive) in assay [2]; 21.8 µM (inactive) in [3]; > 100 µM (inactive) in [4]; > 100 µM (inactive) in assay [5]; > 100 µM (inactive) in [6]. Further, the GI50 in assay [7], in assay [8], in assay [9], in assay [10], in [11] and in assay [12] was > 100 µM (inactive) each time. Moreover, the GI50 in assay [13], in assay [14], in [15], in assay [16], in [17] and in [18] was > 100 µM (inactive) in each case. The GI50 in assay [19] is > 100 µM (inactive).

`O=[N+]([O-])/C(C(Cl)=C(Cl)Cl)=C(/Nc1ccccc1)Sc1ccccc1`: the GI50 was 19.1 µM (inactive) in assay [1]; 21.1 µM (inactive) in assay [2]; 19.6 µM (inactive) in [3]; 19.5 µM (inactive) in [4]; 18.2 µM (inactive) in assay [5]; 15.9 µM (inactive) in [6]. Besides, the GI50 is 18.7 µM (inactive) in assay [7]; 15.7 µM (inactive) in assay [8]; 19.7 µM (inactive) in assay [9]; 19.8 µM (inactive) in assay [10]; 24.9 µM (inactive) in assay [11]; 20.3 µM (inactive) in [12]. Moreover, the GI50 was 20.1 µM (inactive) in [13]; 26.9 µM (inactive) in assay [14]; 17.5 µM (inactive) in assay [15]; 20.7 µM (inactive) in assay [16]; 19.7 µM (inactive) in assay [17]; 14.6 µM (inactive) in [18]. The GI50 in assay [19] was 19.9 µM (inactive).

Regarding `O=[N+]([O-])c1cc(Cl)cc2c1nc(NCCO)c1ccccc12`, the GI50 is 6.43 µM (inactive) in assay [1]; 1.69 µM (inactive) in [2]; 6.21 µM (inactive) in assay [3]; 7.24 µM (inactive) in [4]; 9.53 µM (inactive) in assay [5]; 12.3 µM (inactive) in [6]. In addition, the GI50 in [7] was 9.75 µM (inactive); in assay [8] it was 12.1 µM (inactive); in [9], 13.5 µM (inactive); in [10], 6.46 µM (inactive); in assay [11], 20.9 µM (inactive); in [12], 1.35 µM (inactive). The GI50 is 29.1 µM (inactive) in assay [13]; 6.17 µM (inactive) in assay [14]; 16.1 µM (inactive) in [15]; 0.653 µM (active) in assay [16]; 20.3 µM (inactive) in [17]; 6.64 µM (inactive) in assay [18]. In addition, the GI50 in assay [19] is 10.3 µM (inactive).
